Drawing on patent publication US8501992B2, “Hydroxyphenyl sulfonamides as antiapoptotic bcl inhibitors” (Bristol-Myers Squibb Company, priority 2008, dated 2013), this text covers Ki for 11 compounds.

Assay type in all cases: binding
In one assay the target is T1, Bcl-2 (Homo sapiens, UniProt P10415).
T1 construct: without their C-terminal transmembrane domain; GST; made in house
The assay is described as follows: Bcl2/Bim fluorescence polarization assay (FPA). The following applies: BIM BH3 peptide 5 nM, Bcl-2 11 nM, Ki calculated from FPA data. From the text:
(§1) Compounds were profiled for their ability to disrupt in vitro binding interactions in fluorescence polarization assays (FPAs) using synthetic fluorochrome-labeled Bcl homology 3 (BH3) peptides derived from BIM [(FAM)-Ahx-[…]-NH2 (SEQ ID NO: 1) (GenBank Accession No. O43521)] or BAK [Ac-GQVGRQLAIIGE-LYS(FAM)-INR-NH2 (SEQ ID NO:2) (GenBank Accession No. Q16611) amino acid sequences and four bacterial recombinant proteins [Bcl-b (GenBank Accession No. Q9HD36), Bcl-2 (GenBank Accession No. P10415), Bcl-Xl (GenBank Accession No. Q07817), Mcl-1 (GenBank Accession No. Q07820)] without their C-terminal transmembrane domain. Proteins were purified from bacterial lysates using their glutathione S-transferase (GST)-tag (Bcl-b, Bcl-2, Mcl-1) or His6-tag (Bcl-Xl) and following one-step affinity chromatography procedures. Dissociation constants (Kd) for peptide binding protein were determined by fluorescence polarization in FPAs measuring BIM BH3 peptide binding Bcl-b, Mcl-1 or Bcl-2 protein or BAK BH3 peptide binding Bcl-Xl protein. The Kd values were generated by fitting the experimental data using a sigmoidal dose-response nonlinear regression model.
(§2) Compound inhibitory concentration values, IC50 (50% reduction in fluorescence polarization), were determined using fluorochrome-labeled BH3 peptides and recombinant Bcl proteins in fluorescence polarization assays (FPAs). Compounds diluted in DMSO (0.5 ul) were transferred (in duplicate) to individual wells of a 384-well plate. The fluorochrome-labeled peptide was added followed by recombinant protein addition. Each binding FPA reaction (50 ul) contained BIM BH3 peptide (5 nM) or BAK BH3 peptide (1.5 nM) and Bcl-b (40 nM), Mcl-1 (28 nM), Bcl-2 (11 nM) or Bcl-Xl. (5 nM) protein suspended in assay buffer [20 mM sodium phosphate, pH 7.4, 1 mM EDTA, 50 mM NaCl., 0.05% Pluronic F68]. Reaction mixtures were incubated at ambient temperature for 60 minutes prior to measuring polarization (mP) using an Analyst (LJL, Molecular Devices, Sunnyvale, Calif.) programmed to detect an emission wavelength of 530 nm after excitation (excitation wavelength=485 nm).
(§3) Competitive compound inhibition constants (Ki) were calculated using FPA experimental data and a mathematical equation, Ki=[I]50/([L]50/Kd+[P]0/Kd+1), where [I]50 denotes free inhibitor concentration at 50% inhibition, [L]50 is free labeled ligand concentration at 50% inhibition, [P]0 is free protein concentration at 0% inhibition, and Kd is the dissociation constant of the protein-ligand complex.

A further assay has as its target T2, Mcl-1 (Homo sapiens, UniProt Q07820).
T2 construct: without their C-terminal transmembrane domain; GST; made in house
The assay is described as follows: Mcl-1/Bim fluorescence polarization assay (FPA). To be noted: BIM BH3 peptide 5 nM, Mcl-1 28 nM, Ki calculated from FPA data.
Text: as §1, §2, §3

In another assay the target is T3, Bcl-b (Homo sapiens, UniProt Q9HD36).
T3 construct: without their C-terminal transmembrane domain; GST; made in house
T3 sequence (Q9HD36 1-182 limits assumed): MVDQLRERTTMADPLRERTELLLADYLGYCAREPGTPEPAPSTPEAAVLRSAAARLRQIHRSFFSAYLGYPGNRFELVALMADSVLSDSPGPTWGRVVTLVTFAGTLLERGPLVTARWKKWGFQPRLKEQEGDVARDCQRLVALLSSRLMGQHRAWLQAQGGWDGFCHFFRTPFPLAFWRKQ
The assay is described as follows: Bclb/Bim fluorescence polarization assay (FPA). To be noted: BIM BH3 peptide 5 nM, Bcl-b 40 nM, Ki calculated from FPA data.
Text: as §1, §2, §3

Each structure is given as a SMILES string. pKi: −log10 of the molar value.

T2 sequence (Q07820 1-327 limits assumed): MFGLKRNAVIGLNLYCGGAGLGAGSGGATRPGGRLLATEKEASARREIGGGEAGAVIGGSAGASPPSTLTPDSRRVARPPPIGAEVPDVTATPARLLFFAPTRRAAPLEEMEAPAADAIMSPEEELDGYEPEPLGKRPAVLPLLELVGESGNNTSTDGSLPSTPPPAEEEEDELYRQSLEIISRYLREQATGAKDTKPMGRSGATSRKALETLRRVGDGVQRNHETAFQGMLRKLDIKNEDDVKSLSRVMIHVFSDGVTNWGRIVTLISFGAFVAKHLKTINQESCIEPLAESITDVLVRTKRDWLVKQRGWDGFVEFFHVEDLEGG
T1 sequence (P10415 1-211 limits assumed): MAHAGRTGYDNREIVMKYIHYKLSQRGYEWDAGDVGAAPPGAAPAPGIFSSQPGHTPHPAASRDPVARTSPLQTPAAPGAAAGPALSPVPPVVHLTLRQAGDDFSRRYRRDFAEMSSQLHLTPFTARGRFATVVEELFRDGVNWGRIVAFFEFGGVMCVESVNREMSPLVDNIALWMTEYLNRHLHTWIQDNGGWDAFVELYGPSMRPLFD

The pKi is the negative decadic logarithm of the Ki, by convention in mol/L. On to `O=C(NCCCO)c1cc(Cl)c(O)c(S(=O)(=O)N(Cc2ccc(F)cc2)Cc2cccc(-c3ccc(Cl)cc3)c2)c1` [Example 213, 3-Chloro-5-(N-((4′-chlorobiphenyl-3-yl)methyl)-N-(4-fluorobenzyl)-sulfamoyl)-4-hydroxy-N-(3-hydroxypropyl)benzamide], for which the pKi is 5.91 at Bcl-2, 5.57 on Mcl-1 and 6.33 at Bcl-b.

Take `O=C(NCC(O)CO)c1cc(Cl)c(O)c(S(=O)(=O)N(Cc2ccc(F)cc2)Cc2cccc(-c3ccc(Cl)cc3)c2)c1` (stereo not drawn) [Example 214, 3-Chloro-5-(N-((4′-chlorobiphenyl-3-yl)methyl)-N-(4-fluorobenzyl)-sulfamoyl)-N-(2,3-dihydroxypropyl)-4-hydroxybenzamide]: the values for the pKi on Bcl-2, on Mcl-1 and at Bcl-b were 5.74, 5.79 and 6.21, respectively.

For `O=C(NCc1ccccc1)c1cc(Cl)c(O)c(S(=O)(=O)N(Cc2ccc(F)cc2)Cc2ccc(Oc3ccc(C(F)(F)F)cc3)cc2)c1` [Example 219, N-Benzyl-3-chloro-5-(N-(4-fluoro-benzyl)-N-(4-(4-(trifluoromethyl)-phenoxy)benzyl)sulfamoyl)-4-hydroxybenzamide], the pKi at Bcl-2 was 6.77; at Mcl-1 it was 7.40; on Bcl-b, 6.92.

With `COc1c(Cl)cc(CN(CCn2ccc3ccccc32)S(=O)(=O)c2cc(C(=O)NCc3ccccc3)cc(Cl)c2O)cc1-c1ccc(Cl)cc1` [Example 222, 3-(N-(2-(1H-Indol-1-yl)ethyl)-N-((4′,5-dichloro-6-methoxybiphenyl-3-yl)methyl)sulfamoyl)-N-benzyl-5-chloro-4-hydroxybenzamide], the pKi at Bcl-2 is 6.77; on Mcl-1 it was 7.52; on Bcl-b, 7.52.

With `COC(=O)c1cc(Cl)cc(S(=O)(=O)N(Cc2ccc(F)cc2)Cc2cccc(-c3ccc(Cl)cc3)c2)c1O` [Example 226, Methyl 5-chloro-3-(N-((4′-chloro-biphenyl-3-yl)methyl)-N-(4-fluorobenzyl)sulfamoyl)-2-hydroxybenzoate], the pKi is 5.43 on Bcl-2, 5.64 on Mcl-1 and 6.30 at Bcl-b.

Regarding `O=S(=O)(c1cc(Cl)cc(Cl)c1O)N(Cc1ccc(F)cc1)Cc1cccc(-c2ccc(Cl)cc2)c1` [Example 232, 3,5-Dichloro-N-((4′-chlorobiphenyl-3-yl)methyl)-N-(4-fluorobenzyl)-2-hydroxybenzenesulfonamide], the negative logarithm of the Ki (pKi) on Bcl-2 was 7.05; on Mcl-1, 7.30; at Bcl-b, 7.05.

For the compound `CCCCCCCCc1ccc(CN(Cc2cccc(Oc3ccc(F)cc3)c2)S(=O)(=O)c2cc(Cl)cc(Cl)c2O)cc1` [Example 235, 3,5-Dichloro-N-(3-(4-fluorophenoxy)benzyl)-2-hydroxy-N-(4-octylbenzyl)benzenesulfonamide], the pKi at Bcl-2 was 7.10; at Mcl-1, 7.40; on Bcl-b, 7.22.

Take `COc1c(CN(Cc2ccc(F)cc2)S(=O)(=O)c2cc(Cl)cc(Cl)c2O)cccc1-c1ccc(Cl)cc1` [Example 240, 3,5-Dichloro-N-((4′-chloro-2-methoxybiphenyl-3-yl)methyl)-N-(4-fluorobenzyl)-2-hydroxybenzenesulfonamide]: the pKi at Bcl-2 is 6.92; at Mcl-1 it was 6.33; at Bcl-b, 6.96.

For the compound `CCCCc1ccc(-c2cccc(CN(Cc3ccc(F)cc3)S(=O)(=O)c3cc(Cl)cc(Cl)c3O)c2)cc1` [Example 256, N-((4′-Butylbiphenyl-3-yl)methyl)-3,5-dichloro-N-(4-fluorobenzyl)-2-hydroxybenzenesulfonamide], the pKi at Bcl-2 was 6.89; on Mcl-1, 5.67; at Bcl-b it was 6.85.

As to `Cc1cccc(CN(Cc2ccc(F)cc2)S(=O)(=O)c2cc(Cl)cc(Cl)c2O)c1` [Example 266, 3,5-Dichloro-N-(4-fluorobenzyl)-2-hydroxy-N-(3-methylbenzyl)benzenesulfonamide], the pKi is 6.14 on Bcl-2, 5.77 on Mcl-1 and 6.52 on Bcl-b.

In the case of `O=S(=O)(c1cc(Cl)cc(Cl)c1O)N(Cc1ccc(Cl)cc1)Cc1cccc(-c2ccc(Cl)cc2)n1` [Example 274, 3,5-Dichloro-N-(4-chlorobenzyl)-N-((6-(4-chlorophenyl)pyridin-2-yl)methyl)-2-hydroxybenzenesulfonamide], the pKi is 6.28 on Bcl-2, 5.80 at Mcl-1 and 6.35 at Bcl-b.
